Reference: the supplement of paper PMC11208160

Assay: recombinant barcode read abundance after kanamycin selection (control-corrected) (log10(CPM+1)); higher = more efficient recombination; sequences stand for … in AGTGCAGAGAAAATCGGCCAGTTTTCTCTGCCTGCAGTCCGCATGCCGT…AGATTTATGCAGCGGACTGCCTTTCTCCCAAAGTGATAAACCGGACAGTATCATGGACCGGTTTTCCCGGTAATCCGTATTTGCAAGGTTGGTTTCACT; site = the 11-nt target
Procedure, shortened: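 Oligos holding a promoter, target, barcode and the J23119-driven first 104 bases of the bridge RNA were Gibson-cloned into a vector that supplied the other 73 bp plus a T7-inducible recombinase. This library was co-electroporated with a donor plasmid into E. coli. Two replicates went on chloramphenicol/ampicillin LB agar (control) and two on chloramphenicol/ampicillin/kanamycin with 0.1 mM IPTG. Recombination efficiency is read from averaged, control-corrected barcode counts per million at recombinant junctions, reported as log10(CPM+1).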
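Further: IS621 recombinase and bridge RNA in Escherichia coli cells.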

Sequence | recombinant barcode read abundance (log10)
GTATGAGCTTGGGTTCTAACCTGTTGCTG (site GTATGAGCTCA) | 1.51
GTATGATCTTGGGTTCTAACCTGTTGCAT (site GTATGATCTAT) | 0.807
GTATGATCTTGGGTTCTAACCTGTTGCAT (site GTATGTACTAT) | 0.106
GTATGATCTTGGGTTCTAACCTGTTGCCT (site GTATGAACTAG) | 0.026
GTATGATCTTGGGTTCTAACCTGTTGCCT (site GTATGACCTAG) | 0.0755
GTATGATCTTGGGTTCTAACCTGTTGCCT (site GTATGAGCTAG) | 0.742
GTATGATCTTGGGTTCTAACCTGTTGCCT (site GTATGATCTAG) | 1.45
GTATGGACTTGGGTTCTAACCTGTTGCAA (site CATCAAGCTAG) | 0.138
GTATGGACTTGGGTTCTAACCTGTTGCAA (site GTATGGACTTT) | 1.32
GTATGTGCTTGGGTTCTAACCTGTTGCGG (site GTATGAGCTCC) | 0.689
GTATGTGCTTGGGTTCTAACCTGTTGCGG (site GTATGTGCTCC) | 2.84
GTATTTCCTTGGGTTCTAACCTGTTGCTT (site GTATCTCCTAA) | 0.0837
GTATTTCCTTGGGTTCTAACCTGTTGCTT (site GTATTTCCTAA) | 0.782
GTCAAGACTTGGGTTCTAACCTGTTGCCA (site GTCAAGACTCG) | 0.3
GTCAAGACTTGGGTTCTAACCTGTTGCCA (site GTCAAGACTTG) | 1.03
GTCACCTCTTGGGTTCTAACCTGTTGCTA (site GTAACCTCTGA) | 0.217
GTCACCTCTTGGGTTCTAACCTGTTGCTA (site GTCACCTCTTA) | 1.58
GTCACTACTTGGGTTCTAACCTGTTGCAT (site AAGGTACCTCC) | 0.139
GTCACTACTTGGGTTCTAACCTGTTGCAT (site GTCACTACTAT) | 0.381
GTCAGCTCTTGGGTTCTAACCTGTTGCTA (site GACCGCTCTTA) | 0.127
GTCAGCTCTTGGGTTCTAACCTGTTGCTA (site GTCAGCTCTTA) | 1.16
GTCATACCTTGGGTTCTAACCTGTTGCCT (site GTCATACCTAG) | 1.02

Sequence | recombinant barcode read abundance (log10)
GTCATACCTTGGGTTCTAACCTGTTGCCT (site GTCCTACCTAG) | 0.0356
GTCATACCTTGGGTTCTAACCTGTTGCCT (site GTCGTACCTAG) | 0.111
GTCATACCTTGGGTTCTAACCTGTTGCCT (site GTCTTACCTAG) | 0.203
GTCATGCCTTGGGTTCTAACCTGTTGCCT (site GGCCTGCCTAG) | 0.0766
GTCATGCCTTGGGTTCTAACCTGTTGCCT (site GTCATGCCTAG) | 1.1
GTCCACCCTTGGGTTCTAACCTGTTGCAG (site GTCCACCCTCT) | 1.86
GTCCACCCTTGGGTTCTAACCTGTTGCAG (site GTCCACTCTGT) | 0.01
GTCCACTCTTGGGTTCTAACCTGTTGCTT (site GTCCACTCTAA) | 1.46
GTCCACTCTTGGGTTCTAACCTGTTGCTT (site GTCCAGTCTAC) | 0
GTCCAGGCTTGGGTTCTAACCTGTTGCGG (site GACCAGTCTCC) | 0.421
GTCCAGGCTTGGGTTCTAACCTGTTGCGG (site GTCCAGGCTCC) | 0.924
GTCCCTCCTTGGGTTCTAACCTGTTGCCT (site GTCCCTCCTAA) | 0.187
GTCCCTCCTTGGGTTCTAACCTGTTGCCT (site GTCCCTCCTAC) | 0.116
GTCCCTCCTTGGGTTCTAACCTGTTGCCT (site GTCCCTCCTAG) | 0.709
GTCCCTCCTTGGGTTCTAACCTGTTGCCT (site GTCCCTCCTAT) | 0.586
GTCCGAACTTGGGTTCTAACCTGTTGCCA (site GTCCGAACTTG) | 0.428
GTCCGAACTTGGGTTCTAACCTGTTGCCA (site GTCGGAGCTTG) | 0.0199
GTCCGTCCTTGGGTTCTAACCTGTTGCCT (site GTCCGTCCTAA) | 0.119
GTCCGTCCTTGGGTTCTAACCTGTTGCCT (site GTCCGTCCTAC) | 0.0319
GTCCGTCCTTGGGTTCTAACCTGTTGCCT (site GTCCGTCCTAG) | 0.833
GTCCGTCCTTGGGTTCTAACCTGTTGCCT (site GTCCGTCCTAT) | 0.0563
GTCCGTCCTTGGGTTCTAACCTGTTGCGT (site GTCCGTCCTAA) | 0.139

Sequence | recombinant barcode read abundance (log10)
GTCCGTCCTTGGGTTCTAACCTGTTGCGT (site GTCCGTCCTAC) | 1.69
GTCCGTCCTTGGGTTCTAACCTGTTGCGT (site GTCCGTCCTAG) | 0.09
GTCCGTCCTTGGGTTCTAACCTGTTGCGT (site GTCCGTCCTAT) | 0.504
GTCCTATCTTGGGTTCTAACCTGTTGCTA (site AGGTCTACTGT) | 0.146
GTCCTATCTTGGGTTCTAACCTGTTGCTA (site GTCCTATCTTA) | 0.656
GTCCTGTCTTGGGTTCTAACCTGTTGCCG (site GTCCTGTCTCG) | 1.16
GTCCTGTCTTGGGTTCTAACCTGTTGCCG (site GTCGTGTCTCG) | 0.397
GTCGACCCTTGGGTTCTAACCTGTTGCCT (site GTCGACCCTAG) | 1.98
GTCGACCCTTGGGTTCTAACCTGTTGCCT (site GTCGACGCTAG) | 0.136
GTCGCGACTTGGGTTCTAACCTGTTGCCT (site GTCGCGACTAG) | 0.0792
GTCGCGACTTGGGTTCTAACCTGTTGCCT (site GTCGCGCCTAG) | 0.353
GTCGCGACTTGGGTTCTAACCTGTTGCCT (site GTCGCGGCTAG) | 0.145
GTCGCGACTTGGGTTCTAACCTGTTGCCT (site GTCGCGTCTAG) | 0.215
GTCGGAGCTTGGGTTCTAACCTGTTGCCA (site GTCCGAACTTG) | 0.0692
GTCGGAGCTTGGGTTCTAACCTGTTGCCA (site GTCGGAGCTTG) | 0.959
GTCGGGCCTTGGGTTCTAACCTGTTGCCT (site ATCGGGCCTAG) | 0.0962
GTCGGGCCTTGGGTTCTAACCTGTTGCCT (site CTCGGGCCTAG) | 0.0668
GTCGGGCCTTGGGTTCTAACCTGTTGCCT (site GTCGGGCCTAG) | 0.686
GTCGGGCCTTGGGTTCTAACCTGTTGCCT (site TTCGGGCCTAG) | 0.126
GTCGTGTCTTGGGTTCTAACCTGTTGCCG (site GTCCTGTCTCG) | 0.0845
GTCGTGTCTTGGGTTCTAACCTGTTGCCG (site GTCGTGTCTCG) | 1.28
GTCGTTGCTTGGGTTCTAACCTGTTGCCT (site ATCGTTGCTAG) | 0.522

Sequence | recombinant barcode read abundance (log10)
GTCGTTGCTTGGGTTCTAACCTGTTGCCT (site CTCGTTGCTAG) | 0.0407
GTCGTTGCTTGGGTTCTAACCTGTTGCCT (site GTCGTTGCTAG) | 1.07
GTCGTTGCTTGGGTTCTAACCTGTTGCCT (site TTCGTTGCTAG) | 1.19
GTCTAATCTTGGGTTCTAACCTGTTGCCT (site GTCTAATCTAG) | 0.719
GTCTAATCTTGGGTTCTAACCTGTTGCCT (site GTCTCATCTAG) | 0.271
GTCTAATCTTGGGTTCTAACCTGTTGCCT (site GTCTGATCTAG) | 0.174
GTCTAATCTTGGGTTCTAACCTGTTGCCT (site GTCTTATCTAG) | 0.0315
GTCTACGCTTGGGTTCTAACCTGTTGCCA (site GTCTAAGCTCG) | 0.0189
GTCTACGCTTGGGTTCTAACCTGTTGCCA (site GTCTACGCTTG) | 0.253
GTCTCACCTTGGGTTCTAACCTGTTGCGG (site GTATCTCCTCC) | 0.094
GTCTCACCTTGGGTTCTAACCTGTTGCGG (site GTCTCACCTCC) | 0.91
GTCTGTTCTTGGGTTCTAACCTGTTGCCT (site GACTGTTCTAG) | 0.17
GTCTGTTCTTGGGTTCTAACCTGTTGCCT (site GCCTGTTCTAG) | 0.071
GTCTGTTCTTGGGTTCTAACCTGTTGCCT (site GGCTGTTCTAG) | 0.16
GTCTGTTCTTGGGTTCTAACCTGTTGCCT (site GTCTGTTCTAG) | 0.852
GTCTTCTCTTGGGTTCTAACCTGTTGCTT (site GTCTACTCTCA) | 0.0691
GTCTTCTCTTGGGTTCTAACCTGTTGCTT (site GTCTTCTCTAA) | 0.487
GTGAAGCCTTGGGTTCTAACCTGTTGCCA (site GTGAAGCCTTG) | 0.758
GTGAAGCCTTGGGTTCTAACCTGTTGCCA (site GTGTATCCTTG) | 0.165
GTGAGAGCTTGGGTTCTAACCTGTTGCGG (site GTGAGAGCTCC) | 1.43
